Source: PubChem BioAssay AID248 (DTP/NCI, 2004)
Values joined by “and” are separate entries in the source; they are usually repeats but may differ in a detail not shown here. Identical values can stand only once. Inconclusive results and toxic doses are left out. Rule as the data show it: active = T/C of 150% or more; inactive = T/C below 125%.

Test system: L1210 leukemia ip in BDF1 mice, survival T/C
Test: NCI In Vivo Anticancer Drug Screen. Data for tumor model L1210 Leukemia (intraperitoneal) in B6D2F1 (BDF1) mice
Details: endpoint: mean survival time, higher = longer survival
In short: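 Read-out is survival time, reported as the treated-group measurement over the vehicle-control measurement.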

[1] = dose: 100.0 mg/kg/injection, schedule: Q04DX003 (ip), vehicle: saline with Tween-80
[2] = dose: 200.0 mg/kg/injection, schedule: Q04DX003 (ip), vehicle: saline with Tween-80
[3] = dose: 400.0 mg/kg/injection, schedule: Q04DX003 (ip), vehicle: saline with Tween-80
[4] = dose: 100.0 mg/kg/injection, schedule: Q01DX001 (ip), vehicle: Klucel (hydroxypropylcellulose) (HPC)
[5] = dose: 100.0 mg/kg/injection, schedule: Q01DX009 (ip), vehicle: Klucel (hydroxypropylcellulose) (HPC)
[6] = dose: 200.0 mg/kg/injection, schedule: Q01DX001 (ip), vehicle: Klucel (hydroxypropylcellulose) (HPC)
[7] = dose: 200.0 mg/kg/injection, schedule: Q01DX009 (ip), vehicle: Klucel (hydroxypropylcellulose) (HPC)
[8] = dose: 400.0 mg/kg/injection, schedule: Q01DX001 (ip), vehicle: Klucel (hydroxypropylcellulose) (HPC)
[9] = dose: 400.0 mg/kg/injection, schedule: Q01DX009 (ip), vehicle: Klucel (hydroxypropylcellulose) (HPC)
[10] = dose: 100.0 mg/kg/injection, schedule: Q04DX002 (ip), vehicle: saline with Tween-80
[11] = dose: 100.0 mg/kg/injection, schedule: Q01DX001 (ip), vehicle: saline
[12] = dose: 200.0 mg/kg/injection, schedule: Q01DX001 (ip), vehicle: saline
[13] = dose: 400.0 mg/kg/injection, schedule: Q01DX001 (ip), vehicle: saline
[14] = dose: 100.0 mg/kg/injection, schedule: Q04DX003 (ip), vehicle: saline
[15] = dose: 200.0 mg/kg/injection, schedule: Q04DX003 (ip), vehicle: saline
[16] = dose: 400.0 mg/kg/injection, schedule: Q04DX003 (ip), vehicle: saline
[17] = dose: 50.0 mg/kg/injection, schedule: Q01DX001 (ip), vehicle: saline
[18] = dose: 100.0 mg/kg/injection, schedule: Q01DX001 (ip), vehicle: carboxymethylcellulose (CMC)
[19] = dose: 100.0 mg/kg/injection, schedule: Q04DX003 (ip), vehicle: Klucel (hydroxypropylcellulose) (HPC)
[20] = dose: 200.0 mg/kg/injection, schedule: Q01DX001 (ip), vehicle: carboxymethylcellulose (CMC)
[21] = dose: 400.0 mg/kg/injection, schedule: Q01DX001 (ip), vehicle: carboxymethylcellulose (CMC)
[22] = dose: 100.0 mg/kg/injection, schedule: Q01DX009 (ip), vehicle: saline with Tween-80
[23] = dose: 200.0 mg/kg/injection, schedule: Q01DX009 (ip), vehicle: saline with Tween-80
[24] = dose: 400.0 mg/kg/injection, schedule: Q01DX009 (ip), vehicle: saline with Tween-80

Measured: T/C

O=C(CC1(Cl)C(F)(F)C(F)(F)C1(F)F)c1ccccc1
inactive: dose: 6.25 mg/kg/injection, schedule: Q01DX009 (ip), vehicle: saline 94 % of control | dose: 12.5 mg/kg/injection, schedule: Q01DX009 (ip), vehicle: saline 94 % of control | dose: 25.0 mg/kg/injection, schedule: Q01DX009 (ip), vehicle: saline with Tween-80 94 % of control | dose: 25.0 mg/kg/injection, schedule: Q01DX009 (ip), vehicle: saline 100 % of control

CCC(C)(O)C#Cc1ccc(C)nc1 (stereo unspecified)
inactive: [1] 97 % of control | [2] 96 % of control | [3] 94 % of control

O=C1CC(N2CCOCC2)c2ccccc21 (stereo unspecified)
inactive: [4] 98 % of control | [5] 102 % of control | [6] 92 % of control | [7] 93 % of control | [8] 92 % of control | [9] 91 % of control

COc1ccc(CC(C)=C(C#N)C#N)cc1OC
inactive: dose: 25.0 mg/kg/injection, schedule: Q04DX002 (ip), vehicle: saline with Tween-80 103 % of control | dose: 50.0 mg/kg/injection, schedule: Q04DX002 (ip), vehicle: saline with Tween-80 97 % of control | [10] 97 % of control

O=C(OCC1OCC(OC(=O)c2ccccc2)C1OC(=O)c1ccccc1)c1ccccc1 (stereo unspecified)
inactive: dose: 100.0 mg/kg/injection, schedule: Q01DX001 (ip), vehicle: saline with Tween-80 92 % of control | dose: 200.0 mg/kg/injection, schedule: Q01DX001 (ip), vehicle: saline with Tween-80 110 % of control

CC1C(c2ccccc2)N1C(=O)Nc1ccccc1 (stereo unspecified)
inactive: [4] 93 % of control | [6] 96 % of control | [8] 98 % of control

CCOC(=O)COc1ccc(Cl)cc1C(=O)OCC
inactive: dose: 100.0 mg/kg/injection, schedule: Q04DX002 (sc), vehicle: olive oil, sesame oil, peanut oil 105 % of control | dose: 200.0 mg/kg/injection, schedule: Q04DX002 (sc), vehicle: olive oil, sesame oil, peanut oil 118 % of control | dose: 400.0 mg/kg/injection, schedule: Q04DX002 (sc), vehicle: olive oil, sesame oil, peanut oil 111 % of control

CC(=O)OC1CCC2(C)C3CCC4(C)C(CCC45OC5(C)OC(C)=O)C3CC3OC32C1 (stereo unspecified)
inactive: dose: 50.0 mg/kg/injection, schedule: Q01DX001 (sc), vehicle: steriod suspending solution 111 % of control | dose: 100.0 mg/kg/injection, schedule: Q01DX001 (sc), vehicle: steriod suspending solution 98 % of control | dose: 200.0 mg/kg/injection, schedule: Q01DX001 (sc), vehicle: steriod suspending solution 106 % of control | dose: 400.0 mg/kg/injection, schedule: Q01DX001 (sc), vehicle: steriod suspending solution 101 % of control

Clc1ccccc1C1OC1c1ccccc1Cl (stereo unspecified)
inactive: [5] 105 % of control | dose: 100.0 mg/kg/injection, schedule: Q04DX002 (ip), vehicle: Klucel (hydroxypropylcellulose) (HPC) 98 % of control | [7] 102 % of control | dose: 200.0 mg/kg/injection, schedule: Q04DX002 (ip), vehicle: Klucel (hydroxypropylcellulose) (HPC) 91 % of control | [9] 94 % of control | dose: 400.0 mg/kg/injection, schedule: Q04DX002 (ip), vehicle: Klucel (hydroxypropylcellulose) (HPC) 102 % of control

Cc1ccc([P+](=O)O)cc1Cl
inactive: [11] 100 % of control | [12] 93 % of control | [13] 88 % of control

Nc1ccccc1CCCC(=O)O
inactive: dose: 100.0 mg/kg/injection, schedule: Q01DX009 (ip), vehicle: saline 95 % of control | [14] 104 % of control | dose: 200.0 mg/kg/injection, schedule: Q01DX009 (ip), vehicle: saline 90 % of control | [15] 98 % of control | dose: 400.0 mg/kg/injection, schedule: Q01DX009 (ip), vehicle: saline 105 % of control | [16] 93 % of control

O=C(c1ccccn1)c1nnn2ccccc12
inactive: [10] 91 % of control | dose: 200.0 mg/kg/injection, schedule: Q04DX002 (ip), vehicle: saline with Tween-80 87 % of control

C=CC(=O)O
inactive: dose: 0.5 mg/kg/injection, schedule: Q01DX009 (ip), vehicle: saline 101 % of control | dose: 1.0 mg/kg/injection, schedule: Q01DX009 (ip), vehicle: saline 101 % of control | dose: 1.56 mg/kg/injection, schedule: Q01DX009 (ip), vehicle: acetone 104 % of control | dose: 2.0 mg/kg/injection, schedule: Q01DX009 (ip), vehicle: saline 108 % of control | dose: 3.12 mg/kg/injection, schedule: Q01DX009 (ip), vehicle: acetone 102 % of control | dose: 4.0 mg/kg/injection, schedule: Q01DX009 (ip), vehicle: saline 116 % of control | dose: 5.0 mg/kg/injection, schedule: Q01DX001 (ip), vehicle: saline 102 % of control and 93 % of control | dose: 6.25 mg/kg/injection, schedule: Q01DX009 (ip), vehicle: acetone 88 % of control | dose: 10.0 mg/kg/injection, schedule: Q01DX001 (ip), vehicle: saline 108 % of control and 100 % of control | dose: 20.0 mg/kg/injection, schedule: Q01DX001 (ip), vehicle: saline 101 % of control | dose: 25.0 mg/kg/injection, schedule: Q04DX003 (ip), vehicle: Klucel (hydroxypropylcellulose) (HPC) 90 % of control | dose: 50.0 mg/kg/injection, schedule: Q01DX001 (ip), vehicle: carboxymethylcellulose (CMC) 88 % of control and 106 % of control | [17] 95 % of control | [18] 86 % of control and 95 % of control | [11] 90 % of control and 88 % of control | [19] 89 % of control | [20] 93 % of control and 101 % of control | [12] 93 % of control and 88 % of control | [2] 87 % of control | [21] 88 % of control and 106 % of control | [13] 101 % of control and 95 % of control and 102 % of control | dose: 320.0 micrograms/kg/injection, schedule: Q01DX009 (ip), vehicle: saline 96 % of control | dose: 480.0 micrograms/kg/injection, schedule: Q01DX009 (ip), vehicle: saline 102 % of control | dose: 730.0 micrograms/kg/injection, schedule: Q01DX009 (ip), vehicle: saline 106 % of control | dose: 1100.0 micrograms/kg/injection, schedule: Q01DX009 (ip), vehicle: saline 107 % of control

NC(=O)C1=CNCCC1
inactive: dose: 6.25 mg/kg/injection, schedule: Q01DX001 (ip), vehicle: saline 98 % of control | dose: 12.5 mg/kg/injection, schedule: Q01DX001 (ip), vehicle: saline 104 % of control | dose: 25.0 mg/kg/injection, schedule: Q01DX001 (ip), vehicle: saline 101 % of control | [17] 93 % of control and 118 % of control | [11] 114 % of control | [12] 109 % of control | [13] 118 % of control

CC(O)CC(=O)NN (stereo unspecified)
inactive: [11] 98 % of control | [12] 100 % of control | [13] 93 % of control

O=C1CCCN(Cc2ccccc2)C(=O)N1
inactive: [22] 97 % of control | [1] 103 % of control | [23] 97 % of control | [2] 103 % of control | [24] 97 % of control | [3] 103 % of control

COc1cccc(C=Nc2ccc(I)cc2)c1O.COc1cccc(C=Nc2ccc(I)cc2)c1O.[Co]
inactive: [14] 94 % of control | [15] 94 % of control | [16] 109 % of control

O=C1OCCC1n1cc(F)c(=O)[nH]c1=O (stereo unspecified)
inactive: [19] 102 % of control | dose: 200.0 mg/kg/injection, schedule: Q04DX003 (ip), vehicle: Klucel (hydroxypropylcellulose) (HPC) 98 % of control | dose: 400.0 mg/kg/injection, schedule: Q04DX003 (ip), vehicle: Klucel (hydroxypropylcellulose) (HPC) 96 % of control

CS(=O)(=O)Oc1ccc2ccccc2c1[N+](=O)[O-]
inactive: [18] 98 % of control | [20] 98 % of control | [21] 98 % of control

CCCNC(=O)Nc1cc(C(F)(F)F)ccc1Cl
inactive: [22] 98 % of control | [1] 97 % of control | [23] 88 % of control | [2] 103 % of control | [24] 87 % of control | [3] 108 % of control
